Numbers after ± are expanded uncertainties.

This note sets out measurements from the NIST ThermoML archive (doi:10.1016/j.tca.2015.01.017).

Data set [1] is described as follows: Molar enthalpy of transition or fusion. As to conditions: DSC.
For data set [2] the following is noted: DTA; for Normal melting temperature: Crystal 1.

With `Clc1c(Cl)c(Cl)c(Cl)c(Cl)c1Cl` [hexachlorobenzene], in data set [1] (Crystal), the “Molar enthalpy of transition or fusion” value stood at 5.72 ± 0.17 kcal/mol. Also, the Normal melting temperature in data set [2] stood at 231 ± 0.5 °C.
With `Oc1c(Cl)c(Cl)c(Cl)c(Cl)c1Cl` [pentachlorophenol], the “Molar enthalpy of transition or fusion” value is 3.68 ± 0.122 kcal/mol in data set [1] (Crystal 1) and 2.15 ± 0.0837 kcal/mol in data set [1] (Crystal 3). Further, in data set [2], the Normal melting temperature came out at 191.7 ± 0.5 °C. The figures for the Triple point temperature in data set [2] (Crystal 2), in data set [2] (Crystal 3) and in data set [2] (Crystal 4) were 441.6 ± 0.5 K, 340.2 ± 0.5 K and 287.4 ± 0.5 K, respectively.
